{"source": "patent EP4653444A1", "about": "“FUSED TRICYCLIC COMPOUND AS KINASE INHIBITOR” (Hangzhou Innogate Pharma Co., Ltd., priority 2023, dated 2024)", "key": {"FLT3": {"target": "T1, FLT3 (Homo sapiens, UniProt P36888)", "T1 sequence (P36888 27-993)": "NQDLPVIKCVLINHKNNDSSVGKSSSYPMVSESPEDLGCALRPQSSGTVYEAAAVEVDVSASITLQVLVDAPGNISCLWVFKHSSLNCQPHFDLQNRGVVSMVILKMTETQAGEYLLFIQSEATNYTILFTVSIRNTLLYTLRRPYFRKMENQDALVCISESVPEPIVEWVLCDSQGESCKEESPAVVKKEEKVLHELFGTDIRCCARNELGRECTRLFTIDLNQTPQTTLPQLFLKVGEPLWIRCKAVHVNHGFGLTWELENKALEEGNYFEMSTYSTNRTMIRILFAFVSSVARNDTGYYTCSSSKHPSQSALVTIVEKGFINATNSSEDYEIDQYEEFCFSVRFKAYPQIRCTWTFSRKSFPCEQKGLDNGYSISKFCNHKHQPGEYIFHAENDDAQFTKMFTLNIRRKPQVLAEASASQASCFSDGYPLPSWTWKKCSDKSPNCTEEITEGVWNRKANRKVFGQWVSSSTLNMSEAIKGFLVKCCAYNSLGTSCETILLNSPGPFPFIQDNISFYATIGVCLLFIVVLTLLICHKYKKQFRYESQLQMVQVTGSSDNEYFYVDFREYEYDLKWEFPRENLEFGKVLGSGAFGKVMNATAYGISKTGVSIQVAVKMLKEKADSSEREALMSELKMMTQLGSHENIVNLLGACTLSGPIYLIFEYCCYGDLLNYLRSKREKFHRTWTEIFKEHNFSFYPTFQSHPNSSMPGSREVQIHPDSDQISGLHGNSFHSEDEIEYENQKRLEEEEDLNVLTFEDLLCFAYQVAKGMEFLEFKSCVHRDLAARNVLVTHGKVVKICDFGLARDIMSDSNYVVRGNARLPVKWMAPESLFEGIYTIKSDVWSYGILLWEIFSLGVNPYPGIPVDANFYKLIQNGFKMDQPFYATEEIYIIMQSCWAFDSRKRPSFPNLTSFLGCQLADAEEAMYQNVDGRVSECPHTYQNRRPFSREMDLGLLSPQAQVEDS", "experiment": "FLT3 kinase activity inhibition assay (Mobility shift assay)", "assay_type": "biochemical", "description": "Testing compound inhibitory activity against FLT3 and AXL kinases using Mobility shift assay. Compounds were dissolved in 100% DMSO to prepare 10 mM stock solutions. Prepare 1× Kinase Buffer. Test compounds were serially diluted in 5-fold gradients, and 250 nL of 100× final concentration compounds were transferred to destination plate 3573 using an Echo 550 liquid handler. A 2.5× final concentration kinase solution was prepared in 1× Kinase Buffer. Then, 10 µL of the 2.5× kinase solution was added to both compound wells and positive control wells, while 10 µL of 1× Kinase Buffer was added to negative control wells. The plate was centrifuged at 1000 rpm for 30 seconds, mixed by orbital shaking, and incubated at room temperature for 10 minutes. A 5/3× final concentration mixture of ATP and Kinase Substrate 25 was prepared in 1× Kinase Buffer. The reaction was initiated by adding 15 µL of the 5/3× ATP/substrate mixture. The 384-well plate was centrifuged at 1000 rpm for 30 seconds, mixed by shaking, and incubated at room temperature for 120 minutes. The kinase reaction was terminated by adding 30 µL stop solution, followed by centrifugation at 1000 rpm for 30 seconds and mixing. Conversion rates were measured using a Caliper EZ Reader. %Inhibition = (Conversion%_max - Conversion%_sample)/(Conversion%_max - Conversion%_min) × 100. Where: Conversion%_sample: Conversion rate reading of test samples; Conversion%_min: Mean value of negative control wells (representing conversion rate without enzyme activity); Conversion%_max: Mean value of positive control wells (representing conversion rate without compound inhibition). Dose-response curves were plotted with log(concentration) as the X-axis and percentage inhibition as the Y-axis. Curve fitting was performed using GraphPad Prism 5 software with the \"log(inhibitor) vs. response - Variable slope\" model to derive IC50 values for each compound's enzyme inhibitory activity. The fitting formula was: Y = Bottom + (Top - Bottom)/(1 + 10^((LogIC50 - X) × HillSlope))."}, "HPK1 kinase": {"target": "HPK1 kinase (Homo sapiens, UniProt Q92918)", "sequence (Q92918 whole entry)": "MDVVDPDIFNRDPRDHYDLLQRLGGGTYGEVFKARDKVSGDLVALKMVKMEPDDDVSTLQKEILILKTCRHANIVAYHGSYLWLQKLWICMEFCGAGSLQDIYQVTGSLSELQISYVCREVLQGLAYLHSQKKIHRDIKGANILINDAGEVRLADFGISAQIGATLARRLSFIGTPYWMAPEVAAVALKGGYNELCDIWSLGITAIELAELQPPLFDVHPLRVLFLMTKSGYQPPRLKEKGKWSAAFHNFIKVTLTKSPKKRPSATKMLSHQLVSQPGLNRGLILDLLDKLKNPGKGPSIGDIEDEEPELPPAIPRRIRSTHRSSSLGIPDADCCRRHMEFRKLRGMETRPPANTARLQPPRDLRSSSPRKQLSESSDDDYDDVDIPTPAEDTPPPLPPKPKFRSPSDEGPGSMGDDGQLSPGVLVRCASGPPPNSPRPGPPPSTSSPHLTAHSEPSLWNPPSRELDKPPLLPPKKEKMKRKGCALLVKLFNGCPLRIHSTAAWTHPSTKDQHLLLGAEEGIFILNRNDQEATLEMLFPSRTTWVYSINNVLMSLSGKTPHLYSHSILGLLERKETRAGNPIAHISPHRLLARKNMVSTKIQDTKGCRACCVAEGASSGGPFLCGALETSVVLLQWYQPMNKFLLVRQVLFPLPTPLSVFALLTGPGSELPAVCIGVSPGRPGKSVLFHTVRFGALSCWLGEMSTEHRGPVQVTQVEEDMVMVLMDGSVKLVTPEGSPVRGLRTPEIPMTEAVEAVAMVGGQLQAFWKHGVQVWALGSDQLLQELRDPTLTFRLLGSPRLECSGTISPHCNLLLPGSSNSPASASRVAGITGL", "experiment": "HPK1 kinase activity inhibition assay (Mobility shift assay)", "assay_type": "biochemical", "description": "Measure compound inhibitory activity against HPK1 kinase using Mobility shift assay. Compounds were dissolved in 100% DMSO to prepare 10 mM stock solutions. 1× Kinase buffer was prepared. Test compounds were serially diluted in 5-fold gradients, and 250 nL of 100× final concentration compounds were transferred to destination plate 3573 using an Echo 550 liquid handler. A 2.5× final concentration kinase solution was prepared in 1× Kinase Buffer. 10 µL of the 2.5× kinase solution was added to both compound wells and positive control wells, while 10 µL of 1× Kinase buffer was added to negative control wells. The plate was centrifuged at 1000 rpm for 30 seconds, mixed by orbital shaking, and incubated at room temperature for 10 minutes. A 5/3× final concentration mixture of ATP and Kinase substrate 25 was prepared in 1× Kinase buffer. 15 µL of the 5/3× ATP/substrate mixture was added to initiate the reaction. The 384-well plate was centrifuged at 1000 rpm for 30 seconds, mixed by shaking, and incubated at room temperature for 120 minutes. The kinase reaction was terminated by adding 30 µL stop solution, followed by centrifugation at 1000 rpm for 30 seconds and mixing. Conversion rates were measured using a Caliper EZ Reader. The inhibition percentage was calculated as: %Inhibition = (Conversion%_max - Conversion%_sample)/(Conversion%_max - Conversion%_min) × 100. Where Conversion%_sample: Conversion rate reading of test samples; Conversion%_min: Mean value of negative control wells (representing conversion rate without enzyme activity); Conversion%_max: Mean value of positive control wells (representing conversion rate without compound inhibition). Dose-response curves were plotted with log(concentration) as the X-axis and percentage inhibition as the Y-axis. Curve fitting was performed using GraphPad Prism 5 software with the \"log(inhibitor) vs. response - Variable slope\" model to derive IC50 values for each compound's enzyme inhibitory activity. The fitting formula was: Y = Bottom + (Top - Bottom)/(1 + 10^((LogIC50 - X) × HillSlope))."}}, "note": "Like-named read-outs stand apart in the source and are kept apart here."}
{"smiles": "COc1cc2c(cc1Nc1ncc(Cl)c(Nc3ccccc3S(=O)(=O)C(C)C)n1)OC[C@@H]1CN(C3CCOCC3)CCN21", "note": "[Compound C1S]", "values": [{"measurement": "IC50", "setting": "FLT3; Table 3, read-out: FLT3 (IC50)", "result": "< 30", "unit": "nM"}]}
{"smiles": "COc1cc2c(cc1Nc1ncc(Cl)c(Nc3ccccc3S(=O)(=O)C(C)C)n1)OC[C@@H]1CN(C3CCN(C)CC3)CCN21", "note": "[Compound C2S]", "values": [{"measurement": "IC50", "setting": "FLT3", "result": "< 30", "unit": "nM"}]}
{"smiles": "CNC(=O)c1ccccc1Nc1cc(Nc2cc3c(cc2OC)N2CCN(C4CCN(C)CC4)C[C@@H]2CO3)ncc1C(F)(F)F", "note": "[Compound D2R]", "values": [{"measurement": "IC50", "setting": "HPK1 kinase", "result": "< 30", "unit": "nM"}, {"measurement": "IC50", "setting": "FLT3", "result": "< 20", "unit": "nM"}]}
{"smiles": "CNC(=O)c1ccccc1Nc1cc(Nc2cc3c(cc2OC)N2CCN(C4CCN(C)CC4)C[C@H]2CO3)ncc1C(F)(F)F", "note": "[Compound D2S]", "values": [{"measurement": "IC50", "setting": "HPK1 kinase; Table 4, read-out: HPK1 (IC50)", "result": "< 30", "unit": "nM"}, {"measurement": "IC50", "setting": "FLT3; Table 4, read-out: FLT3 (IC50)", "result": "< 50", "unit": "nM"}]}
{"smiles": "CNC(=O)c1ccccc1Nc1cc(Nc2cc3c(cc2OC)N2CCN(C4CN(C)C4)C[C@H]2CO3)ncc1C(F)(F)F", "note": "[Compound D4S]", "values": [{"measurement": "IC50", "setting": "HPK1 kinase; Table 4, read-out: HPK1 (IC50)", "result": "< 20", "unit": "nM"}, {"measurement": "IC50", "setting": "FLT3; Table 4, read-out: FLT3 (IC50)", "result": "< 70", "unit": "nM"}]}
